US11369110B2, “Compositions and methods for enhancing microbial stability” (NOVOZYMES BIOAG A/S, priority 2013, dated 2022)

How the values were obtained:
[1] = test system: B. japonicum SEMIA 5079 and B. japonicum SEMIA 5080; assay: Liquid inoculant survivability in the presence of benzyl hemi-formal (Example 4); assay type: cell-based, Bradyrhizobium japonicum; settings: at the concentration tested; Table 8
Description: (§1) The activity of two microbially stabilizing compounds, yeast extract and albumin, were tested for reducing the effects of the preservative benzyl hemi-formal (at a concentration reflecting that provided by the current recommendation for a commercial insecticide that includes that preservative).
(§2) Using conventional aseptic techniques, 10 ml of a commercial liquid inoculant containing B. japonicum SEMIA 5079 and B. japonicum SEMIA 5080 (Nitragin CellTech HC, commercially available from Novozymes) was transferred to a series of sterile test tubes, to which 0.7 ml of a 2% solution containing benzyl hemi-formal was added and, in the corresponding tubes, 0.3 g of Yeast extract (commercially available from Merck) or 0.3 g Albumin (commercially available from SIGMA) were incorporated. A control of bacterial survival consisting of the inoculants without a microbial stabilizing compound was tested for comparison.
(§3) The tubes were mixed using a vortex agitator, transferred to a 30° C. orbital shaker. After 20 minutes incubation (Time 0), 0.1 ml samples were taken, and conventionally diluted 1/10 in a series of tubes containing 0.9 ml of sterile saline solution (0.85% NaCl in distilled water). […] Colonies were counted after seven days incubation. The number of colony forming units per ml (CFU ml^−1) was calculated taking into account the plated dilutions and the plated volume. […]

[2] = test system: B. elkani SEMIA 587 and B. elkani SEMIA 5019; assay: Liquid inoculant survivability in the presence of benzyl hemi-formal (Example 1); assay type: cell-based, Bradyrhizobium elkani; settings: at the concentration tested; Table 2
Description: as §1
as §2, with “elkani” for “japonicum”, “587” for “5079”, “5019” for “5080”, “Optimize II,” for “CellTech HC,”
as §3

[3] = test system: B. elkani SEMIA 587 and B. elkani SEMIA 5019; assay: Liquid inoculant survivability in the presence of insecticide containing benzyl hemi-formal (Example 2); assay type: cell-based, Bradyrhizobium elkani; settings: Table 4
Description: The general protocol described in Example 1 was modified to process larger samples. A commercial insecticide containing benzyl hemi-formal was tested at concentrations that would emulate the recommended doses both for the inoculants and the insecticide.
(§4) Sterile 250 ml erlenmeyers containing sterile magnetic stirrers were used instead of test tubes. The commercial insecticide was transferred to a series of erlenmeyers and the stated amounts of microbial stabilizing compounds (yeast extract and soy meal peptone from Merck and tryptophan from Ajinomoto) were premixed at 250 rpm for 6 hours.
To each of the corresponding erlenmeyer flasks, 30 ml of the inoculants (as described in example 1) was added, mixed, and samples were obtained immediately and at 2 hr intervals. Samples were processed as described in Example 1.

[4] = test system: B. japonicum SEMIA 5079 and B. japonicum SEMIA 5080; assay: Liquid inoculant survivability in the presence of insecticide containing benzyl hemi-formal (Example 5); assay type: cell-based, Bradyrhizobium japonicum; settings: Table 10
Description: The general protocol described in Example 4 was modified to process larger samples. A commercial insecticide containing benzyl hemi-formal was tested at concentrations that would emulate the recommended doses both for the inoculants and the insecticide.
as §4
To each of the corresponding erlenmeyer flasks, 30 ml of inoculant (as described in example 4) was added, mixed, and samples were obtained immediately and at 2 hr intervals. Samples were processed as described in Example 4.

Molecule: albumin
- Effect on the deleterious effects induced by benzyl hemi-formal (in words) [1]: reduce the deleterious effects
- Effect on the deleterious effects induced by benzyl hemi-formal (in words) [2]: reduce the deleterious effects

Molecule: N[C@@H](Cc1c[nH]c2ccccc12)C(=O)O [tryptophan]
- Effect on the deleterious effects induced by benzyl hemi-formal containing agrochemical on a microbial population (in words) [3]: reduce the deleterious effects
- Effect on the deleterious effects induced by benzyl hemi-formal containing agrochemical on a microbial population (in words) [4]: reduce the deleterious effects
